# Values quoted from earlier work, collected in patent US20140283166A1, “CREATION AND TRANSMISSION OF MEGALOCI” (Monsanto Technology, LLC, priority 2013, published 2014).
# Read-outs that look alike come from different tables or passages of the source.
# Tested on: Arabidopsis
compound,measurement,setting,value
COc1cccc(C(N)=O)c1 [3-methoxybenzamide],effect on genetic distance around centromeres,2 mM,increase the genetic distance around centromeres
Nc1ncn([C@H]2C[C@H](O)[C@@H](CO)O2)c(=O)n1 [5-aza-2′-deoxycytidine],effect on genetic distance around centromeres,25 or 100 mg/L,increase the genetic distance around centromeres
CCN(N=O)C(N)=O [N-nitroso-N-ethylurea],effect on genetic distance around centromeres,100 μM,increase the genetic distance around centromeres
Cc1c(N)nc([C@H](CC(N)=O)NC[C@H](N)C(N)=O)nc1C(=O)N[C@H](C(=O)N[C@H](C)[C@@H](O)[C@H](C)C(=O)N[C@H](C(=O)NCCC1=N[C@@H](c2nc(C(=O)NCCCCN=C(N)N)cs2)CS1)[C@@H](C)O)[C@@H](O[C@@H]1O[C@@H](CO)[C@@H](O)[C@H](O)[C@@H]1O[C@H]1O[C@H](CO)[C@@H](O)[C@H](OC(N)=O)[C@@H]1O)c1cnc[nH]1 [Zeocin],effect on genetic distance around centromeres,1 μg/ml,increase the genetic distance around centromeres
N.N.[Cl][Pt][Cl] [cis-diamminedichloroplatinum],effect on genetic distance around centromeres,20 μg/ml,increase the genetic distance around centromeres
CCOS(C)(=O)=O [methanesulfonic acid ethyl ester],effect on genetic distance around centromeres,0.05%,increase the genetic distance around centromeres
COS(C)(=O)=O [methanesulfonic acid methyl ester],effect on genetic distance around centromeres,75 parts per million,increase the genetic distance around centromeres
CO[C@@]12[C@H](COC(N)=O)C3=C(C(=O)C(C)=C(N)C3=O)N1C[C@@H]1N[C@@H]12 [mitomycin C],effect on genetic distance around centromeres,10 mg/L,increase the genetic distance around centromeres
CCCC(=O)O [n-butyric acid],effect on genetic distance around centromeres,20 μM,increase the genetic distance around centromeres
CC(/C=C/C(=O)NO)=C\[C@@H](C)C(=O)c1ccc(N(C)C)cc1 [trichostatin A],effect on genetic distance around centromeres,10 μM,increase the genetic distance around centromeres
